In series [1] the test system is Hex^RS ES cells. Put plainly: ADE (H+C+) induction, serum-free suspension (aggregation) culture, flow cytometry. It counts as cell-based. The protocol: For ADE induction under serum-free conditions in suspension culture, ES cells were seeded onto non-coated 10 cm Petri dishes at 5×10^3 cells/ml in N2B27 culture medium supplemented with 10 ng/ml Bmp4 and 20 ng/ml activin A. Following 2 days of culture the resulting EBs were harvested as above and replated on non-coated Petri dishes at the same density in SF03 culture medium (ref Tada 2005) supplemented with 20 ng/ml activin A and 20 ng/ml EGF. The media was replaced 2 days later and then every 3 days for the duration of the experiment. For some experiments 10 ng/ml Fgf4 (R&D), 10 ng/ml Bmp4, 20 ng/ml Activin A, 1×10^−5M all-trans retinoic acid, 100 ng/ml PD173074 (Sigma), 20 ng/ml EGF and 3 μM CHIR99021 were added to the culture at the indicated timepoints.
FITC-conjugated rat anti-CD184 (CXCR4), FITC-conjugated rat anti-CD31 and FITC conjugated rat anti-CD45 were purchased from BD Pharmingen. EBs generated under various different differentiation conditions were dissociated by treatment with cell dissociation buffer (PBS based) (GIBCO-BRL). Cells were washed in PBS supplemented with 10% FCS (FB) and resuspended at a maximum density of 5×10^6 cells/ml. For surface staining 200 μl of cells were plated in a V shape 96 well polystyrene plate (Sterilin) in PBS supplemented with 1% serum of the species in which the antibody was manufactured. The FITC-conjugated antibody or a FITC-conjugated isotype control was added at a 1:100 dilution. Cells were incubated in the dark for 20 mins, washed 3 times with FB and resuspended in FB supplemented with Topro3-iodide (Invitrogen) to exclude dead cell from the analysis. Cells were analysed using a FACS Calibur (BD Biosciences) or sorted using a MoFlo MLS flow cytometer (DakoCytomation). […]
FITC-conjugated rat anti-CD184 (Cxcr4), FITC-conjugated rat anti-CD31 and FITC conjugated rat anti-CD45 were purchased from BD Pharmingen. […] Cells were analysed using a FACS Calibur (BD Biosciences) or sorted using a MoFlo MLS flow cytometer (DakoCytomation).
On the technique in general: In flow cytometry, cells or beads pass a laser one at a time.

Series [2] has as its system Hex^RS ES cells. Briefly: ADE (H+C+) induction, two-step suspension (embryoid body) differentiation with serum day 0-2, flow cytometry for RS and Cxcr4. The class given is cell-based, mouse. The protocol: ADE was induced under serum-containing conditions using a 2-step protocol. ES cells were seeded onto non-coated 10 cm petri dishes (sterilin) at a density of 5×10^3 cells/ml in Glasgow minimum essential medium (G-MEM; GIBCO-BRL) supplemented with 10% fetal calf serum (FCS), 0.1 mM nonessential amino acids (GIBCO-BRL), 1 mM sodium pyruvate, 2 mM glutamine and 0.1 mM 2-mercaptoethanol (2ME). Following 2 days of culture the resulting embryoid bodies (EBs) were harvested by centrifugation at 500 rpm for 1 min and replated on 10 cm non-coated petri dishes at the same density in N2B27 culture medium (StemCellSciences) supplemented with 20 ng/ml activin A (R&D). The media was replaced 2 days later and then every 3 days for the duration of the experiment. For some experiments 20 ng/ml EGF, 10 ng/ml Bmp4, 20 ng/ml activin A (R&D), 1×10^−5M all-trans retinoic acid (Sigma) and 3 μM CHIR99021 (a gift from StemCellSciences) were added to the culture at the indicated timepoints.
(§1) FITC-conjugated rat anti-CD184 (CXCR4), FITC-conjugated rat anti-CD31 and FITC conjugated rat anti-CD45 were purchased from BD Pharmingen. EBs generated under various different differentiation conditions were dissociated by treatment with cell dissociation buffer (PBS based) (GIBCO-BRL). Cells were washed in PBS supplemented with 10% FCS (FB) and resuspended at a maximum density of 5×10^6 cells/ml. For surface staining 200 μl of cells were plated in a V shape 96 well polystyrene plate (Sterilin) in PBS supplemented with 1% serum of the species in which the antibody was manufactured. The FITC-conjugated antibody or a FITC-conjugated isotype control was added at a 1:100 dilution. Cells were incubated in the dark for 20 mins, washed 3 times with FB and resuspended in FB supplemented with Topro3-iodide (Invitrogen) to exclude dead cell from the analysis. Cells were analysed using a FACS Calibur (BD Biosciences) or sorted using a MoFlo MLS flow cytometer (DakoCytomation).
Mouse ES cells were cultured according to Li et al., (1995). ADE was induced under serum-containing conditions using a 2-step protocol. ES cells were seeded onto non-coated 10 cm petri dishes (Sterilin) at a density of 5×10^3 cells/ml in GMEM supplemented as described in Li et al., (1995) except in the absence of LIF. EBs were harvested after two days by centrifugation and replated in N2B27 medium (StemCellSciences) supplemented with 20 ng/ml activin A (R&D) and 20 ng/ml EGF (R&D). This media was replaced again two days later. 10 ng/ml BMP4, 20 ng/ml activin A (R&D) and 1×10^−5M all-trans retinoic acid (Sigma) were added where indicated.
(§2) FITC-conjugated rat anti-CD184 (Cxcr4), FITC-conjugated rat anti-CD31 and FITC conjugated rat anti-CD45 were purchased from BD Pharmingen. Cells were stained with Topro3-iodide (Invitrogen) to exclude dead cells from the analysis. Cells were analysed using a FACS Calibur (BD Biosciences) or sorted using a MoFlo MLS flow cytometer (DakoCytomation).

Series [3] relates to Hex^RS ES cells. Put plainly: ADE (H+C+) induction, serum-free adherent monolayer culture, flow cytometry, RT-PCR and immunostaining. It counts as cell-based. The note with it: for ADE differentiation / ability to promote ADE formation: FIG. 25; for ADE differentiation: added to cultures for days 3-4 or days 3-7, PD173074 100 ng/ml, SU5402 25 μM; for ability to promote ADE formation: monolayer, FGFs at 10 ng/ml. The protocol:
For ADE induction under serum-free conditions in adherent monolayer culture, ES cells were seeded onto gelatin coated 3 cm 6 well dishes (Iwaki) at a density of 1×10^4 cells/ml in N2B27 medium (StemCellSciences) supplemented with 10 ng/ml Bmp4, 20 ng/ml activin A and 10 ng/ml Fgf4. Following 2 days of culture the media was replaced with SF03 culture medium (Tada 2005) supplemented with 20 ng/ml activin A, 10 ng/ml Fgf4 and 20 ng/ml EGF. The media was replaced 2 days later and then every 3 days for the duration of the experiment. For some experiments 1×10^−5M all-trans retinoic acid, 100 ng/ml PD173074 and 3 μM CHIR99021 were added to the culture at the indicated timepoints.
as §1
Total RNA was prepared from a minimum of 1×10^4 cells from sorted cell fractions, EBs, monolayer differentiated cells or ES cells using Trizol reagent (Invitrogen). 1 μg of RNA was used as a template for cDNA synthesis using Superscript III (Invitrogen). Real-time RT-PCR was performed using a LightCycler 480 (Roche) and LightCycler 480 SYBR Green 1 Master (Roche). The following cycling conditions were used: denaturation: 95° C. 5 sec, amplification: 95° C. 5 sec, 58° C. 10 sec, 72° C. 20 sec (45 cycles), 81° C. 1 sec, melt: 95° C. 1 sec, 65° C. 10 sec, 95° C. −ramp 5 C per sec continuous, cool: […] 10 sec. Standard curves were generated from plasmid. Samples were normalized to β-actin or TATA-box binding protein (TBP) expression levels.
Sorted cells were seeded onto gelatin coated 24 well dishes (Iwaki). Adherence of cells to the substrate was enhanced by centrifugation at 1200 rpm for 3 mins. Sorted cells, monolayer differentiated cells and ES cells were washed in PBS, fixed in 4% paraformaldehyde for 10 mins and permeabilised by washing in PBS supplemented with 0.1% Triton X (PBST). Cells were treated with a blocking reagent (3% serum of same species as secondary antibody, 1% BSA in PBST) for 15 min before incubation with the primary antibody at 4° C. overnight. The cells were washed with PBST and incubated with the appropriate fluorescence-tagged secondary antibody for 2 hr at room temperature. The cells were washed with PBST and DAPI added during the final wash. The following primary antibodies were used, all are anti-mouse: anti-Oct3/4, anti-HNF-3β (Foxa2), anti-HNF-4α (Santa Cruz), anti-Cer11 (R&D), anti-E-cadherin (Takara Bio Inc) anti-alpha fetoprotein (NeoMarkers), anti-albumin (Bethyl laboratories inc). Anti-Pdx1 was a gift from P. Serup. […]
as §2

Setting [4] is: FGF signalling blocked for days 3-7.
Setting [5] is: exogenous FGF4, defined monolayer culture (FIG. 22C, D).

Turning to `Cc1c[nH]c(-c2cnc(NCCNc3ccc(C#N)cn3)nc2-c2ccc(Cl)cc2Cl)n1` [CHIR99021], in the series on Hex^RS ES cells [1] (added during the first two days, serum-free, aggregation and monolayer (Table 7)), the “total number of surviving cells at the end of the 7 day differentiation” value is “significantly increased”. In addition, the “total number of H+C+ cells produced” value in the series with Hex^RS ES cells [1] (serum-free differentiation (Table 7)) is listed as “no or only very minor effects”. For the same molecule, the “induction of the H+C+ cell population” value in the series with Hex^RS ES cells [2] (addition at day 0-2, in the presence of serum) is reported as “completely blocked”.

As for `CCN(CC)CCCCNc1ncc2cc(-c3cc(OC)cc(OC)c3)c(NC(=O)NC(C)(C)C)nc2n1` [PD173074, reference compound], in the series on Hex^RS ES cells [3] (setting [4]), the “H+C+ and C+ populations” value was “complete loss”; the “cell survival / viability” value is reported as “dramatically compromised”. Moreover, the ADE differentiation entry in the series on Hex^RS ES cells [3] is reported as “inhibit ADE differentiation”. Besides, the “generation of C+ and H+C+ populations” value in the series with Hex^RS ES cells [3] (inhibitor present for the entire protocol) is “unable to generate either population”. Moreover, in the series on Hex^RS ES cells [3] (inhibitor present for the first two days of differentiation, then removed), the “number of C+ and H+C+ cells” value is on record as “reduced number”.

Take `Cc1c[nH]c(/C=C2\C(=O)Nc3ccccc32)c1CCC(=O)O` [SU5402, reference compound]: the ADE differentiation result in the series with Hex^RS ES cells [3] is reported as “inhibit ADE differentiation”.

For `CC1=C(/C=C/C(C)=C/C=C/C(C)=C/C(=O)O)C(C)(C)CCC1` [retinoic acid, all-trans retinoic acid, reference compound], the “induction of the RS positive population” value with Hex^RS ES cells [2] (added either at day 0 or day 3 (Table 2)) was “completely blocked”. The CXCR4 induction entry in the series on Hex^RS ES cells [2] (added either at day 0 or day 3, data not shown) was “without effecting”.

Take “FGF2: fibroblast growth factor, 10 ng/ml”: the “ability to promote ADE formation” value in the series with Hex^RS ES cells [3] is “have the ability to promote ADE formation”.

B1: activin: secreted TGFβ ligand, activin A (R&D), 20 ng/ml (protein, UniProt P08476 311-426, looked up)
Inhibin beta A chain: GLECDGKVNICCKKQFFVSFKDIGWNDWIIAPSGYHANYCEGECPSHIAGTSGSSLSFHSTVINHYRMRGHSPFANLKSCCVPTKLRPMSMLYYDDGQNIIKKDIQNMIVEECGCS
modifications: Inhibin beta A chain
On to B1, for which the “cells RS positive” value in the series on Hex^RS ES cells [2] (day 7, serum containing media 48 hr, then serum free media supplemented with activin 5 days) is on record as 6.8-8.6%.

B2: FGF4: fibroblast growth factor, 10 ng/ml (R&D) (protein, UniProt P08620 31-206, looked up)
Fibroblast growth factor 4: APTAPNGTLEAELERRWESLVALSLARLPVAAQPKEAAVQSGAGDYLLGIKRLRRLYCNVGIGFHLQALPDGRIGGAHADTRDSLLELSPVERGVVSIFGVASRFFVAMSSKGKLYGSPFFTDECTFKEILLPNNYNAYESYKYPGMFIALSKNGKTKKGNRVSPTMKVTHFLPRL
Regarding B2, the “H+C+ ADE” value in the series on Hex^RS ES cells [3] (FIG. 22E, FGF4 added solely during the second phase of differentiation) was “up to 20%”. The “ability to promote ADE formation” value with Hex^RS ES cells [3] is listed as “have the ability to promote ADE formation”. Besides, the “number of CXCR4 expressing cells” value in the series on Hex^RS ES cells [3] (addition of Fgf4, monolayer) is reported as “did not increase”. For the same molecule, in the series with Hex^RS ES cells [3] (setting [5]), the “anterior markers Cer1 and Gsc” value was “induction”; the “expression of Foxa2 and Sox17” value is “increased”. For the same molecule, the “mesodermal and primitive streak gene expression” value in the series with Hex^RS ES cells [3] (exogenous FGF4, defined monolayer culture (FIG. 22D)) was “suppressing”. In the series with Hex^RS ES cells [3] (monolayer cultures, inclusion in the differentiation protocol), the “H+C+ cell number” value is given as “doubled”.

B3: FGF10: fibroblast growth factor, 10 ng/ml (protein, UniProt O15520 38-208, looked up)
Fibroblast growth factor 10: QALGQDMVSPEATNSSSSSFSSPSSAGRHVRSYNHLQGDVRWRKLFSFTKYFLKIEKNGKVSGTKKENCPYSILEITSVEIGVVAVKAINSNYYLAMNKKGKLYGSKEFNNDCKLKERIEENGYNTYASFNWQHNGRQMYVALNGKGAPRRGQKTRRKNTSAHFLPMVVHS
With B3, in the series on Hex^RS ES cells [3], the “ability to promote ADE formation” value is recorded as “not”.

B4: FGF5: fibroblast growth factor, 10 ng/ml (protein, UniProt P12034 21-268, looked up)
Fibroblast growth factor 5: HGEKRLAPKGQPGPAATDRNPRGSSSRQSSSSAMSSSSASSSPAASLGSQGSGLEQSSFQWSPSGRRTGSLYCRVGIGFHLQIYPDGKVNGSHEANMLSVLEIFAVSQGIVGIRGVFSNKFLAMSKKGKLHASAKFTDDCKFRERFQENSYNTYASAIHRTEKTGREWYVALNKRGKAKRGCSPRVKPQHISTHFLPRFKQSEQPELSFTVTVPEKKKPPSPIKPKIPLSAPRKNTNSVKYRLKFRFG
Take B4: the “ability to promote ADE formation” value in the series on Hex^RS ES cells [3] was “not”.
